Among the data in ChEMBL document CHEMBL1155959, “Inhibitory effects of polymethoxy flavones isolated from Citrus reticulate on degranulation in rat basophilic leukemia RBL-2H3: enhanced inhibition by their combination” (Bioorg Med Chem, 2008) are ED50 and Activity values, retold here.

In test [1] the test system is Radical scavenging activity. Briefly: Antioxidant activity assessed as DPPH radical scavenging activity. The class given is functional. (DPPH is a stable violet radical that fades when it is reduced.)
The test system of test [2] is RBL-2H3. Briefly: Effect on antigen-stimulated intracellular ROS production in IgE-sensitized CM-H2DCF-DA-treated rat RBL-2H3 cells assessed as increase in 2',7'-dichlorofluorescein oxidation at 50 uM after 30 mins in presence of dinitrophenylated bovine serum albumin. The class given is functional, cell-based.
Test [3] has as its target Mitogen-activated protein kinase 8 (Rattus norvegicus) (UniProt P49185). Briefly: Inhibition of JNK1/2 phosphorylation in antigen-stimulated rat RBL-2H3 cells at 50 uM by Western blot analysis in presence of dinitrophenylated bovine serum albumin. The class given is cell-based. (A western blot detects proteins with antibodies after separation by electrophoresis.)
The target in test [4] is Tyrosine-protein kinase SYK (Rattus norvegicus) (UniProt Q64725). Briefly: Inhibition of Syk phosphorylation in antigen-stimulated rat RBL-2H3 cells at 50 uM by Western blot analysis in presence of dinitrophenylated bovine serum albumin. The format is cell-based.
Test [5] has as its system RBL-2H3. Description: Inhibition of degranulation in IgE-sensitized rat RBL-2H3 cells assessed as inhibition of antigen-stimulated intracellular calcium elevation after 30 mins in presence of dinitrophenylated bovine serum albumin. The class given is functional, cell-based. (Calcium flux is commonly read through the fluorescence of an indicator in the cells.)
The target of test [6] is Tyrosine-protein kinase Lyn (Rattus norvegicus) (UniProt Q07014). Description: Inhibition of Lyn phosphorylation in antigen-stimulated rat RBL-2H3 cells at 50 uM by Western blot analysis in presence of dinitrophenylated bovine serum albumin. The class given is cell-based.
Test [7] has as its target T1, 1-phosphatidylinositol 4,5-bisphosphate phosphodiesterase gamma-1 (Rattus norvegicus) (UniProt P10686).
T1 sequence (whole entry): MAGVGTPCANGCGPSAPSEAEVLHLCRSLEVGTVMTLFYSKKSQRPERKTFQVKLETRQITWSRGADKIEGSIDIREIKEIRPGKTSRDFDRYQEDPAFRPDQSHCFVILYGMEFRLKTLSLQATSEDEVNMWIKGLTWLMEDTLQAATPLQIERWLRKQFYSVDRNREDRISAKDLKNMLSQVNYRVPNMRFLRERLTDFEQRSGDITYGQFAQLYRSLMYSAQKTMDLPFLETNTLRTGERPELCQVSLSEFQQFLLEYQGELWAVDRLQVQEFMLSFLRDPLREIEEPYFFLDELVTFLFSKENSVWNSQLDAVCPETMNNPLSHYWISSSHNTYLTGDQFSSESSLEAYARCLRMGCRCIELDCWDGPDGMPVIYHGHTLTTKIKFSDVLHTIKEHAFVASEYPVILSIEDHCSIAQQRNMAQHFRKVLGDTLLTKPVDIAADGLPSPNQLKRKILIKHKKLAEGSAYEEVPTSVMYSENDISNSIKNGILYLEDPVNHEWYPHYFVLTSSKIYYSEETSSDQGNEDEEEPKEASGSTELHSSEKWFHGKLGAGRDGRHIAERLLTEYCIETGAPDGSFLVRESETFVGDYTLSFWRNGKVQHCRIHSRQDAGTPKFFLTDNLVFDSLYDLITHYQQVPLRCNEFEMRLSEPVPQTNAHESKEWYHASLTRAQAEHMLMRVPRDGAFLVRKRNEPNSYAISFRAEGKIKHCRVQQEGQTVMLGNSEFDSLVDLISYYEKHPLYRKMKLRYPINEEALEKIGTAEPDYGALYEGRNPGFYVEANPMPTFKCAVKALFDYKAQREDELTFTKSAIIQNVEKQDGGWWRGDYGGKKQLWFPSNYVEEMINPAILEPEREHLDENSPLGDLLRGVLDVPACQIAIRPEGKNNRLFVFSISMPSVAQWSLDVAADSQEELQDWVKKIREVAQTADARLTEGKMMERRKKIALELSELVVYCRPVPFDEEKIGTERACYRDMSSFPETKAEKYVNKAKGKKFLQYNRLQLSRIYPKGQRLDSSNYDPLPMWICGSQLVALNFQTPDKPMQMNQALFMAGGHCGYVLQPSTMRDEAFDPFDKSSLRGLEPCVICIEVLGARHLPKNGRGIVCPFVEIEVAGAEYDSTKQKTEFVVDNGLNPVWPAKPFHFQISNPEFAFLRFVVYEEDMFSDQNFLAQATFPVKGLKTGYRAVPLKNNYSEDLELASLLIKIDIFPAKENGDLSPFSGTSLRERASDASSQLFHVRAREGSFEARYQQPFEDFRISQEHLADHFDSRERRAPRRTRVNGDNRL
Briefly: Inhibition of PLC-gamma-1/gamma-2 phosphorylation in antigen-stimulated rat RBL-2H3 cells at 50 uM by Western blot analysis in presence of dinitrophenylated bovine serum albumin. The class given is cell-based.

The test system of test [8] is RBL-2H3. Briefly: Suppression of degranulation in IgE-sensitized rat RBL-2H3 cells assessed as inhibition of antigen-stimulated histamine release after 30 mins in presence of dinitrophenylated bovine serum albumin. The format is functional, cell-based.
Test [9] has as its system RBL-2H3. Briefly: Suppression of degranulation in IgE-sensitized rat RBL-2H3 cells assessed as inhibition of A-23187-stimulated histamine release after 30 mins. The class given is functional, cell-based.
The target in test [10] is Mitogen-activated protein kinase 1 and 3 (ERK2 and ERK1) (Rattus norvegicus) (UniProt P63086+P21708). Briefly: Inhibition of ERK1/2 phosphorylation in antigen-stimulated rat RBL-2H3 cells at 50 uM by Western blot analysis in presence of dinitrophenylated bovine serum albumin. The format is cell-based.
Test [11] has as its system RBL-2H3. Briefly: Inhibition of p38 MAPK phosphorylation in antigen-stimulated rat RBL-2H3 cells at 50 uM by Western blot analysis in presence of dinitrophenylated bovine serum albumin. The format is cell-based.

Activity calls are given as the source filed them. The calls are words filed in the database; no cut-off is given here. Where only a bound is given, the exact number is not on record here.

Sequence of Tyrosine-protein kinase Lyn (Rattus norvegicus) (Q07014 whole entry): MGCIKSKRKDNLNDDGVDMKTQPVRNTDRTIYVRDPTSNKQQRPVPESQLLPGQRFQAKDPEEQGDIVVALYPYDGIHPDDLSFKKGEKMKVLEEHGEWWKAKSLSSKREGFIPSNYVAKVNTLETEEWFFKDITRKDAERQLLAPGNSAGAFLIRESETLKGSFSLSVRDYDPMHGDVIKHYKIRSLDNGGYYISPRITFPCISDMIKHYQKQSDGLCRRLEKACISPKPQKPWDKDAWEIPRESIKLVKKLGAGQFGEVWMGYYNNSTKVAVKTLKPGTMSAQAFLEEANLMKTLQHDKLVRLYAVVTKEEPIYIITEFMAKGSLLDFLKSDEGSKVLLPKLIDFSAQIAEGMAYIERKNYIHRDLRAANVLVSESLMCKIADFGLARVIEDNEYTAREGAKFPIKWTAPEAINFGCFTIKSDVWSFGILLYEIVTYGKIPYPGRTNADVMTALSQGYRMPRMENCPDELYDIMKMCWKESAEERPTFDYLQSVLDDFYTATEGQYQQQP
Sequence of Mitogen-activated protein kinase 1 and 3 (ERK2 and ERK1) (Rattus norvegicus) (P21708 whole entry, looked up): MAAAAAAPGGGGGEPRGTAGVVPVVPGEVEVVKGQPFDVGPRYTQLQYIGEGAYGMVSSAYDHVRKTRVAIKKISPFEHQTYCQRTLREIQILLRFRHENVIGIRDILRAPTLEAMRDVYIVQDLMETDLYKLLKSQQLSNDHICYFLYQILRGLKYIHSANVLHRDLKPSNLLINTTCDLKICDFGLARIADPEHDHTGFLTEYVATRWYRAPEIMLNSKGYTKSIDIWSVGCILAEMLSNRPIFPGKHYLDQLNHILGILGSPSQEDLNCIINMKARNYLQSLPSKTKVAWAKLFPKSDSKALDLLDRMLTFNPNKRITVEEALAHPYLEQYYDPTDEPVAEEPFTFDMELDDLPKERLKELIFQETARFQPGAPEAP
Sequence of Mitogen-activated protein kinase 1 and 3 (ERK2 and ERK1) (Rattus norvegicus) (P63086 whole entry, looked up): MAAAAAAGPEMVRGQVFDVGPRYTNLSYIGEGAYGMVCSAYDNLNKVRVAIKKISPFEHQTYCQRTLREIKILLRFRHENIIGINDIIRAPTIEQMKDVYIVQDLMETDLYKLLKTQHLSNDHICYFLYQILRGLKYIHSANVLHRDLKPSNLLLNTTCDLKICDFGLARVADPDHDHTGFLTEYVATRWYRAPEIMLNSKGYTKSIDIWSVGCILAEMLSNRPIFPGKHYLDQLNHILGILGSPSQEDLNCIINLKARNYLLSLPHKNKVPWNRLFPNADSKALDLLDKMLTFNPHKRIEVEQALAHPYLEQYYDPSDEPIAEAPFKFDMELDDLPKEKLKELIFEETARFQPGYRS
Sequence of Mitogen-activated protein kinase 8 (Rattus norvegicus) (P49185 whole entry): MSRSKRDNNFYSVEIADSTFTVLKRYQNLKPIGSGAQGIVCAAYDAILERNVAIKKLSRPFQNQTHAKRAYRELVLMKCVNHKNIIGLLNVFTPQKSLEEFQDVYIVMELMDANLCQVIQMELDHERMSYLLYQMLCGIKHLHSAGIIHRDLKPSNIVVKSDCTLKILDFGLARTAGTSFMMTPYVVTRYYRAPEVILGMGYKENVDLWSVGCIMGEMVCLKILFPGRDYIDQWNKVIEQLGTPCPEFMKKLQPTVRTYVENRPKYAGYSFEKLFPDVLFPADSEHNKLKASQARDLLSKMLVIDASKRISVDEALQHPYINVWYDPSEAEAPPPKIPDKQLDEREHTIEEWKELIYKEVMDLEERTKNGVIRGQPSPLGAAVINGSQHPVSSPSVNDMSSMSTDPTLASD
Sequence of Tyrosine-protein kinase SYK (Rattus norvegicus) (Q64725 whole entry, looked up): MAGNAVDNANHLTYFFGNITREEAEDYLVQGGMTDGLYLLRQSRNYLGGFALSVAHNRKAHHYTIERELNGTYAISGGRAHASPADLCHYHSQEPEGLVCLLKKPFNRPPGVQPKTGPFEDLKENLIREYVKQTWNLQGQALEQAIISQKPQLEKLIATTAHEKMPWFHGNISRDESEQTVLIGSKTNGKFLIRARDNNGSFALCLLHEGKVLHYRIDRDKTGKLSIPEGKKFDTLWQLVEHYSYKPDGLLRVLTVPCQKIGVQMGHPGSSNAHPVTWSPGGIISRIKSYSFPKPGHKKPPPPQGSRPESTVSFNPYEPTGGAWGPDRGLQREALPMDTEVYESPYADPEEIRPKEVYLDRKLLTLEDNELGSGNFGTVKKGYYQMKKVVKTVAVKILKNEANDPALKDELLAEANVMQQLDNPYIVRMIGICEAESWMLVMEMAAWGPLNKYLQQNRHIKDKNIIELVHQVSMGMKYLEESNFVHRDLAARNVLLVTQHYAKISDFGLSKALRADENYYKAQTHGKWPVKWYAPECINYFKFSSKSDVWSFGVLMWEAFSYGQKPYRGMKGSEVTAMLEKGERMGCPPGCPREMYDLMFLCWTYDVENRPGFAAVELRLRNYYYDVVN

Take `COc1ccc(OC)c(-c2cc(=O)c3c(OC)c(OC)cc(OC)c3o2)c1`: the ED50 in test [1] is < 100 µM. The outcome (in the test on RBL-2H3 [2]; in test [4]; in the test with RBL-2H3 [5]; in test [7]; in the test on RBL-2H3 [9]; in [10]) was Active. Moreover, the outcome (in [3]; in test [6]; in the test with RBL-2H3 [11]) was inactive. For the same compound, in the test with RBL-2H3 [8], the Activity entry is “Dose-dependent effect”.

Consider `O=C1O[C@H]([C@@H](O)CO)C(O)=C1O`, for which the ED50 in test [1] stood at 18 µM.

On to VITAMIN E, for which, in [1], the ED50 was 78 µM.

As to `O=C(O[C@@H]1Cc2c(O)cc(O)cc2O[C@@H]1c1cc(O)c(O)c(O)c1)c1cc(O)c(O)c(O)c1`, the ED50 in test [1] came out at 7 µM.

As for `COc1ccc(-c2cc(=O)c3c(O)c(OC)c(OC)cc3o2)cc1OC`, the ED50 in test [1] was < 100 µM. The result (in the test on RBL-2H3 [2]; in test [4]; in the test with RBL-2H3 [5]; in test [7]; in the test on RBL-2H3 [9]; in test [10]) was Active. Moreover, the outcome (in [3]; in test [6]; in the test on RBL-2H3 [11]) was inactive. Besides, the Activity entry in the test with RBL-2H3 [8] was “Dose-dependent effect”.

For `COc1cc(-c2cc(=O)c3c(OC)c(OC)c(OC)cc3o2)cc(OC)c1OC`, the ED50 in test [1] is < 100 µM. Moreover, the outcome (with RBL-2H3 [2]; in test [4]; in [7]; with RBL-2H3 [9]; in [10]) was Active. The result (in test [3]; in the test on RBL-2H3 [5]; in test [6]; in the test with RBL-2H3 [11]) was inactive. Moreover, the Activity entry in the test with RBL-2H3 [8] was “Dose-dependent effect”.
